# Assay results as given in ChEMBL document CHEMBL1201862, “PubChem BioAssay data set” (2004).
# The source made the active and inactive calls.
# Tests used:
# Beta Lactamase = Beta Lactamase (Pseudomonas aeruginosa, UniProt Q932Y6); test: beta-lactamase reporter inhibitor potency, dose response, artefact control for TLR9-MyD88 binding inhibitor project, BLA reporter cells, FRET fluorescence (AID 588341); format: cell-based;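 note: cell based assay in CHO-K1 cells stably expressing beta-lactamase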
# Sequence of Beta Lactamase (Q932Y6 whole entry): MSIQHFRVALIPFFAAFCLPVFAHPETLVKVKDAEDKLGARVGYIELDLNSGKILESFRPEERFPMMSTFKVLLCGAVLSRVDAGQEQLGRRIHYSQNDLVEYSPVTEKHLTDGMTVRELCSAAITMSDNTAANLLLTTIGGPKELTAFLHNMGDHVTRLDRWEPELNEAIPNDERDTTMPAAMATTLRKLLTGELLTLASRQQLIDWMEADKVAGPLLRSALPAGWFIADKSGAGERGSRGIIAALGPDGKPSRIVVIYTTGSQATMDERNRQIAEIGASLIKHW
# [1] = target: T1, Replicative DNA helicase DnaB (Mycobacterium tuberculosis, UniProt P9WMR3); test: DnaB intein splicing inhibitors, dose response, biochemical, cell-free fluorescence (AID 449749); format: functional
# T1 sequence (P9WMR3 whole entry): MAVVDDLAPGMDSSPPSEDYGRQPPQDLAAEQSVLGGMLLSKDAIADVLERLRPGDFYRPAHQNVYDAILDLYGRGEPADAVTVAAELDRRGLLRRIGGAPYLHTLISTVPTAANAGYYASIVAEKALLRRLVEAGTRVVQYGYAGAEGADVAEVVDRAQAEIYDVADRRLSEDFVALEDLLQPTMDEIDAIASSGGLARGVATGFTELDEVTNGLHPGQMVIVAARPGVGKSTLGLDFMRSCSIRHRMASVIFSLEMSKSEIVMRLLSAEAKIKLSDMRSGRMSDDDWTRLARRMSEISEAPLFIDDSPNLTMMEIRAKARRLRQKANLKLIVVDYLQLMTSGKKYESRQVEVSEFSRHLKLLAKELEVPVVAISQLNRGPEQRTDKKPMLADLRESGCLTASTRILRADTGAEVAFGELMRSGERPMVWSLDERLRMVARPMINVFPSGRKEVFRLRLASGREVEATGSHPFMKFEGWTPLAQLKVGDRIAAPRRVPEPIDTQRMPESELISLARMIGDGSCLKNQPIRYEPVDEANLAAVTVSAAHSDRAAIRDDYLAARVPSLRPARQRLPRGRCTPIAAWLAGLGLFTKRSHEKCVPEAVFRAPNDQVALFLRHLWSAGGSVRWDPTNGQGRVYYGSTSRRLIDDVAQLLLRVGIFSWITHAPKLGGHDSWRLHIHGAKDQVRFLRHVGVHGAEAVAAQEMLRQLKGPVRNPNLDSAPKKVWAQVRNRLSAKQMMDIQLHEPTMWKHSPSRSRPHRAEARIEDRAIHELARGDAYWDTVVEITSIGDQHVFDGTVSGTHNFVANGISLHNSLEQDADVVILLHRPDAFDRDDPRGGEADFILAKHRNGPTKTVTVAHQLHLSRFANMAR
# [2] = control 3'UTR Renilla luciferase suppression, dose response, counter-screen for Shn3 inhibitor project, cell-based, Clone20-Shn3RL, cherry-picked (AID 624133); format: functional
# [3] = Intein inhibitors as potential Tuberculosis drugs, a cytotoxicity screen. [Related pubchem assays (depositor defined):AID2221, AID2223, AID434968, AID435010, AID449749, AID449750, AID489010]; format: functional
# [4] = inhibitors of intracellular T. cruzi replication, confirmation, NIH3T3 host cells, beta-gal luminescence (AID 2044); format: functional, cell-based;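 note: intracellular parasites grown in NIH/3T3 mouse fibroblasts as host cells; luminescent beta-galactosidase reporter signal from transgenic T. cruzi replicating inside host cells; inhibitors lower the luminescence signal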
# [5] = target: T2, Heat shock factor protein 1 (Mus musculus, UniProt P38532); test: inhibition of MG132-induced HSE-luciferase signal, confirmation, cell-based, NIH3T3, luminescence, dose retest (AID 2382); format: functional;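 note: NIH3T3 fibroblasts with HSF1-driven luciferase reporter stressed by proteasome inhibitor MG132; luminescence from HSF1-driven luciferase expression after 8 hours of MG132 stress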
# T2 sequence (P38532 whole entry): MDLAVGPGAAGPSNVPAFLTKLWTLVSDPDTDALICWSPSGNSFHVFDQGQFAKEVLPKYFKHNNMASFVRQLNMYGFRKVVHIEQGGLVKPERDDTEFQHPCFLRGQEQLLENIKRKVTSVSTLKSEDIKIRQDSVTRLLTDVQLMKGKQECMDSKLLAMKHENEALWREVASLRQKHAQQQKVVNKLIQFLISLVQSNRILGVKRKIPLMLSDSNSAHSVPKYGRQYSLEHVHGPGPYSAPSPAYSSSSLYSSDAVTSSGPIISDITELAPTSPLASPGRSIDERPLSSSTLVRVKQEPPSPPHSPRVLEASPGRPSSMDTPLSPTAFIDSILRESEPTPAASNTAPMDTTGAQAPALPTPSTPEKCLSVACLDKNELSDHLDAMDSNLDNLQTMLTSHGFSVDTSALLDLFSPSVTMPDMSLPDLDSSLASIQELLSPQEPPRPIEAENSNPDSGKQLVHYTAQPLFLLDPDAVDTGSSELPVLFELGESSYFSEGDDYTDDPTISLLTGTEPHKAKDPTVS
# [6] = miR-122 activators in hepatoma reporter cells, dose response, cell-based, Huh7 psiCHECK-miR122, Renilla luciferase, cherry-picked (AID 651956); format: functional;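 note: huh7 hepatoma cells stably carrying a psiCHECK-2 miR-122 sensor plasmid; renilla luciferase signal reporting endogenous miR-122 activity after 48 h compound exposure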
# INS1 = test: beta cell apoptosis inhibitors, cytokine rescue, dose response, luminescence, retest (AID 449756); format: functional, cell-based; details: Rattus norvegicus;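 note: cell death triggered by IL-1 beta plus TNF-alpha plus IFN-gamma mixture; protective hits raise ATP signal compared with cytokine alone wells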
# HeLa = test: Cytotoxicity counterscreen assay for transcriptional activators of heat shock protein 70 (Hsp70). [Related pubchem assays: 1203, 1252 ]; format: functional; details: Homo sapiens;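 note: cells exposed to compound for 16 hours before readout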
# [7] = HEK293T cytotoxicity, dose response, cytotoxicity control for miR-122 modulator project, cell-based, activator set, cherry-pick (AID 720690); format: functional;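 note: HEK293T human cells scored for general mammalian cytotoxicity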
# [8] = HepG2 cell cytotoxicity, dose response, cytotoxicity control for Shn3 inhibitor project, CellTiter-Glo, cherry-picked (AID 624134); format: functional, cell-based
# [9] = Shn3 3'UTR reporter inhibitors, dose response, cell-based, Clone20 osteoblasts, firefly luciferase, cherry-picked (AID 624132); format: functional;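 note: firefly luciferase luminescence from reporter carrying the Shn3 3'UTR in osteoblasts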
# [10] = target: Sphingosine 1-phosphate receptor 2 (Homo sapiens, UniProt O95136); test: Dose Response Cell Based Assay for Antagonists of the S1P2 Receptor. [Related pubchem assays: 856, 736 ]; format: functional
# Sequence of Sphingosine 1-phosphate receptor 2 (O95136 whole entry): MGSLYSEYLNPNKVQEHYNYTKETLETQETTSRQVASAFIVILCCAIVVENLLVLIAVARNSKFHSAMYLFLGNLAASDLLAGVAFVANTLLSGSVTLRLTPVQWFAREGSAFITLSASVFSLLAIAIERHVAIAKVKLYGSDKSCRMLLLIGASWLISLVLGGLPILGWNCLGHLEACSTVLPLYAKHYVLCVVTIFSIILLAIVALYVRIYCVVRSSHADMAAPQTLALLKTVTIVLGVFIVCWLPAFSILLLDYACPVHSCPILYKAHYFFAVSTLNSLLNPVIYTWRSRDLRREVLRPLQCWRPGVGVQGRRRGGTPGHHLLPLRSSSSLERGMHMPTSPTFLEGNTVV
# [11] = C. albicans growth with fluconazole, confirmation, fluorescence, retest (AID 2467); format: functional, cell-based
# [12] = NIH-3T3 fibroblast cytotoxicity, dose response, cytotoxicity control, cell-based, fluorescence, Alamar Blue, secondary assay (AID 2327); format: functional;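 note: NIH-3T3 mouse fibroblasts cultured with fluconazole at 8 µg/mL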
# [13] = HEK293T cytotoxicity, dose response, cytotoxicity control for miR-122 modulator project, cell-based, inhibitor set, cherry-pick, set 2 (AID 720697); format: functional
# CHO = test: cytotoxicity in TLR9-MyD88 CHO cells, dose response, cytotoxicity control for TLR9-MyD88 binding inhibitor project, cell-based, luminescence (AID 588339); format: functional, hamster; details: Cricetulus griseus;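 note: CHO cells stably coexpressing TLR9 and MyD88 fusions from primary screen; compound exposure lasted 48 hours before viability readout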
# [14] = Luminescent dose response cell-based high throughput screening assay for inhibitors of the Janus kinase 2 mutant JAK2V617F. [Related pubchem assays: 1446 (Primary screen.), 1521 (Confirmation assay.), 1486 (Counter screen.)]; format: functional
# [15] = cytotoxicity toward NIH3T3 fibroblasts, dose response, counter-screen, cell-based, ATP luminescence, mouse fibroblasts (AID 2010); format: functional;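 note: cells exposed to compound for about 90 hours before reading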
# Protein RecA = target: T3, Protein RecA (Mycobacterium tuberculosis, UniProt P9WHJ3); test: Fluorescence Cell-Free Homogeneous Dose Retest to Identify Inhibitors of RecA-Intein Splicing Activity. [Related pubchem assays (depositor defined):AID2097, AID2223, AID489010, AID492950]; format: functional
# T3 sequence (P9WHJ3 whole entry): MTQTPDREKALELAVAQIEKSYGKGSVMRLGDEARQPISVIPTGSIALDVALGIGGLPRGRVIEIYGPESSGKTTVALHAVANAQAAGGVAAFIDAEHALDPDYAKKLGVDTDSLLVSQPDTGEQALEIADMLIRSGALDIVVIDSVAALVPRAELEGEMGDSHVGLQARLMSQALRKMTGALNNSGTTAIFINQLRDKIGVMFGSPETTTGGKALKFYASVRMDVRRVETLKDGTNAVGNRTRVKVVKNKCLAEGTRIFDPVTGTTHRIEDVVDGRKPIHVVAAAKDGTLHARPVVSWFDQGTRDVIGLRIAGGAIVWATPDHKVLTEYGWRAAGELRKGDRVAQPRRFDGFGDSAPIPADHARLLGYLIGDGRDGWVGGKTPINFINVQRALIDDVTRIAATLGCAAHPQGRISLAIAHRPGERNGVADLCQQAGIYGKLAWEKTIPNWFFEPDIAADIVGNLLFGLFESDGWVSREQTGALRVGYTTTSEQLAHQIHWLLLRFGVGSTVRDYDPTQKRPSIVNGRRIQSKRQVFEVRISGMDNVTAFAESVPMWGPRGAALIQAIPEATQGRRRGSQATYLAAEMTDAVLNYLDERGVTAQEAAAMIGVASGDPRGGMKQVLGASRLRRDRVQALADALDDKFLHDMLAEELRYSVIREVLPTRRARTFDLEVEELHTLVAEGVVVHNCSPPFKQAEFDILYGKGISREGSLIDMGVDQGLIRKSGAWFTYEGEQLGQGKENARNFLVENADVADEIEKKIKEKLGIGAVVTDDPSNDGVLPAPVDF
# [16] = Counterscreen for IDE inhibitors: Luminescence-based cell-based high throughput dose response assay to identify compounds that are cytotoxic to HEK cells. [Related pubchem assays: 434962 (Primary screen (IDE inhibitors in singlicate)), 449730 (Counterscreen (Cytotoxicity in triplicate)), 435028 (Confirmation (IDE inhibitors in triplicate)) …; format: functional; details: HEK293
# Insulin-degrading enzyme = target: T4, Insulin-degrading enzyme (Homo sapiens, UniProt P14735); test: Dose Response: Fluorescence polarization-based cell-based high throughput dose response assay for inhibitors of insulin-degrading enzyme (IDE). [Related pubchem assays: 434962 (Primary screen (IDE inhibitors in singlicate)), 449730 (Counterscreen (Cytotoxicity in triplicate)), 435028 (Confirmation (IDE inhibitors in triplicate)), 434984 (Summary …; format: functional
# T4 sequence (P14735 whole entry): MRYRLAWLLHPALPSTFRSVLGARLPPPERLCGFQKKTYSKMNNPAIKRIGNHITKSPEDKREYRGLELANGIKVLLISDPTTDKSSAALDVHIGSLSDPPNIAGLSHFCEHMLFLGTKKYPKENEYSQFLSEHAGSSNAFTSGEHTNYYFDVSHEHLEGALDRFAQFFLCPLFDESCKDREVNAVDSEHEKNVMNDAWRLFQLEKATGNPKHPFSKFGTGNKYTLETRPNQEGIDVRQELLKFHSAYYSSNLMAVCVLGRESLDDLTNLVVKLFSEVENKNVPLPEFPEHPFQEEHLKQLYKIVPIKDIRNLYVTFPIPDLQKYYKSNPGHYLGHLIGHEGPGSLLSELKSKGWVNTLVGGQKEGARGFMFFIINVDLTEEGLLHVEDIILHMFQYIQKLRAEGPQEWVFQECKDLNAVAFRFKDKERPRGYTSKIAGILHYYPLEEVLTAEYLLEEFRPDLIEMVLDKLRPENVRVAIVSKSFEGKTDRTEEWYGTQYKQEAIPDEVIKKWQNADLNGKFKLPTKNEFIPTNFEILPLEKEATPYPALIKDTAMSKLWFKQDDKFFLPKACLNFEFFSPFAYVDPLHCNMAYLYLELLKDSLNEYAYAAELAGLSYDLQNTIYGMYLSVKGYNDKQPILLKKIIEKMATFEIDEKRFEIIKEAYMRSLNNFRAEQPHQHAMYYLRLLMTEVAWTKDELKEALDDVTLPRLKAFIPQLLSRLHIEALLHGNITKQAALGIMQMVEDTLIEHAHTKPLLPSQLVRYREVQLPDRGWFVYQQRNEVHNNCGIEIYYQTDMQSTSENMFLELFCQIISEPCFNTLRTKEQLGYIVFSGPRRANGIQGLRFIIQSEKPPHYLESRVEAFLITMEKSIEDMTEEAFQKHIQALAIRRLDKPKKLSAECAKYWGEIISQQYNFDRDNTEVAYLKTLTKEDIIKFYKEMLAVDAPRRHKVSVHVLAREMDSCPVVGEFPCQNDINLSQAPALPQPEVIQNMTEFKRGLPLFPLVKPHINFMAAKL
# BJ [17] = test: cytotoxicity toward BJ-TERT fibroblasts, dose response, cell-based, RAS-independent, luminescence (AID 1933); format: functional; details: Homo sapiens
# [18] = cytotoxicity toward DRD oncogenic fibroblasts, dose response, cell-based, non-viral oncogenic, luminescence (AID 1934); format: functional; details: Homo sapiens
# BJ [19] = test: cytotoxicity toward BJ-TERT-LT-ST fibroblasts, dose response, cell-based, RAS-independent, luminescence (AID 1935); format: functional; details: Homo sapiens;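 note: BJ fibroblasts immortalized with TERT plus LT and ST oncogenes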
# [20] = inhibitors of SNCA 5'UTR-driven translation, confirmation, luminescence, H4 neuroglioblastoma cells, dose confirmation (AID 2454); format: functional, cell-based;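 note: H4 neuroglioblastoma cells carrying an alpha-synuclein 5'UTR luciferase reporter; potency for inhibition of the luciferase signal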
# [21] = inhibitors of SNCA 5'UTR-driven reporter translation, confirmation, H4 neuroglioma cells, luminescence (AID 1988); format: functional, cell-based
# cells = format: functional, cell-based
# [22] = HEK293 cell cytotoxicity, dose response, cytotoxicity control, dry powder samples (AID 720567); format: functional, cell-based
# [23] = inhibitors of firefly luciferase expression or activity, dose response, H4 neuroglioma cells, luminescence (AID 1990); format: functional, cell-based
# [24] = Luminescence Cell-Based Dose Response HTS to Identify Inhibitors of 5'UTR Stem-Loop Driven Prion Protein mRNA Translation in H4 Neuroglioblastoma Cells. [Related pubchem assays: 1827 (Project Summary), 1813 (Primary HTS)]; format: functional
# [25] = luciferase reporter signal reduction – luminescence, H4-C neuroglioblastoma cells, dose response (AID 2458); format: functional, cell-based;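 note: H4 neuroglioblastoma cells stably carrying a luciferase reporter gene fusion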
# BJ [26] = test: cells; format: functional, cell-based; details: Homo sapiens
compound,measurement,setting,value
O=C(OCn1ncc(Cl)c(Cl)c1=O)c1ccccc1Cl,IC50,Beta Lactamase,> 49.8 µM (inactive)
same,AC50,[1],3.32 µM (active)
same,AC50,[2],3.56 µM (active)
same,CC50,[3],5.38 µM (active)
same,EC50,[4],1.04 µM (active)
same,EC50,[5],1.99 µM (active)
same,AC50,[6],11.2 µM (active)
same,AC50,INS1,5.37 µM (active)
same,CC50,HeLa,> 11 µM (not active)
same,AC50,[7],4.89 µM (active)
same,AC50,[8],27.3 µM (active)
same,AC50,[9],3.56 µM (active)
same,IC50,[10],3.15 µM (active)
same,EC50,[11],> 38 µM (not active)
same,EC50,[12],2.57 µM (inconclusive)
same,AC50,[13],4.39 µM (active)
same,IC50,CHO,1.64 µM (active)
same,IC50,[14],0.401 µM (active)
same,EC50,[15],1.07 µM (active)
same,EC50,Protein RecA,0.669 µM (active)
Oc1sc(/C=N/c2ccc(F)cc2)c2ccccc12,IC50,[16],> 55.7 µM (not active)
same,IC50,Insulin-degrading enzyme,> 55.9 µM (not active)
CCOc1ccc(NC(=O)c2cc(OC)nc3ccccc23)cc1,EC50,BJ [17],1.11 µM (active)
same,EC50,[18],0.894 µM (active)
same,EC50,BJ [19],1.38 µM (inconclusive)
same,EC50,[20],1.16 µM (active)
same,EC50,[21],< 0.1 µM (active)
same,EC50,cells,1.96 µM (active)
same,AC50,[22],> 30 µM (inactive)
same,EC50,[23],4.73 µM (active)
same,EC50,[24],0.303 µM (active)
same,EC50,[25],0.965 µM (active)
same,EC50,BJ [26],69.8 µM (inconclusive)
